# Experiments:
# Format in all cases: in vivo
# [1] = test system: blackgrass (Alopecurus myosuroides); test: Test A1 preemergence, blackgrass
# Excerpt: (§1) Seeds of plant species selected from, blackgrass (Alopecurus myosuroides), corn (Zea mays), Foxtail, Giant (giant foxtail, Setaria faberi), goosegrass (Eleusine indica), kochia (Bassia scoparia), Oat, Wild (wild oat, Avena fatua), Pigweed, Palmer (palmer amaranth, palmer pigweed, Amaranthus palmeri), ragweed (common ragweed, Ambrosia artemisiifolia), Ryegrass, Italian (Italian ryegrass, Lolium multiflorum), soybean (Glycine max), and wheat (Triticum aestivum) were planted into a blend of loam soil and sand and treated preemergence with a directed soil spray using test chemicals formulated in a non-phytotoxic solvent mixture which included a surfactant. At the same time, plants selected from these crop and weed species and also galium (catchweed bedstraw, Galium aparine) and horseweed (Erigeron canadensis) were planted in pots containing the same blend of loam soil and sand and treated with postemergence applications of test chemicals formulated in the same manner. Plants ranged in height from 2 to 10 cm and were in the one- to two-leaf stage for the postemergence treatment. […] A dash (-) response means no test result.
# corn (Zea mays) [2] = test: Test A1 preemergence, corn
# Excerpt: as §1
# [3] = test system: Foxtail, Giant (giant foxtail, Setaria faberi); test: Test A1 preemergence, Foxtail, Giant
# Excerpt: as §1
# [4] = test system: goosegrass (Eleusine indica); test: Test A1 preemergence, goosegrass
# Excerpt: as §1
# kochia (Bassia scoparia) [5] = test: Test A1 preemergence, kochia
# Excerpt: as §1
# [6] = test system: Oat, Wild (wild oat, Avena fatua); test: Test A1 preemergence, Oat, Wild
# Excerpt: as §1
# [7] = test system: Pigweed, Palmer (palmer amaranth, palmer pigweed, Amaranthus palmeri); test: Test A1 preemergence, Pigweed, Palmer
# Excerpt: as §1
# [8] = test system: ragweed (common ragweed, Ambrosia artemisiifolia); test: Test A1 preemergence, ragweed
# Excerpt: as §1
# [9] = test system: Ryegrass, Italian (Italian ryegrass, Lolium multiflorum); test: Test A1 preemergence, Ryegrass, Italian
# Excerpt: as §1
# soybean (Glycine max) [10] = test: Test A1 preemergence, soybean
# Excerpt: as §1
# [11] = test system: wheat (Triticum aestivum); test: Test A1 preemergence, wheat
# Excerpt: as §1
# [12] = test system: blackgrass (Alopecurus myosuroides); test: Test A1 postemergence, blackgrass; conditions: Postemergence, 0 to 100 scale (0 no effect, 100 complete control)
# Excerpt: as §1
# corn (Zea mays) [13] = test: Test A1 postemergence, corn; conditions: Postemergence
# Excerpt: as §1
# [14] = test system: Foxtail, Giant (giant foxtail, Setaria faberi); test: Test A1 postemergence, Foxtail, Giant; conditions: for Foxtail, Giant plant response rating: 31 g ai/ha, postemergence, 0 to 100 scale (0 no effect, 100 complete control); for Plant response rating, Foxtail, Giant: Postemergence, 125 g ai/ha, 0 to 100 scale
# Excerpt: as §1
# [15] = test system: goosegrass (Eleusine indica); test: Test A1 postemergence, goosegrass; conditions: for Goosegrass plant response rating: 31 g ai/ha, postemergence, 0 to 100 scale (0 no effect, 100 complete control); for Plant response rating, Goosegrass: Postemergence, 125 g ai/ha, 0 to 100 scale
# Excerpt: as §1
# kochia (Bassia scoparia) [16] = test: Test A1 postemergence, kochia; conditions: for Kochia plant response rating: 31 g ai/ha, postemergence, 0 to 100 scale (0 no effect, 100 complete control); for Plant response rating, Kochia: Postemergence, 125 g ai/ha, 0 to 100 scale
# Excerpt: as §1
# [17] = test system: Oat, Wild (wild oat, Avena fatua); test: Test A1 postemergence, Oat, Wild; conditions: for Oat, Wild plant response rating: 31 g ai/ha, postemergence, 0 to 100 scale (0 no effect, 100 complete control); for Plant response rating, Oat, Wild: Postemergence, 125 g ai/ha, 0 to 100 scale
# Excerpt: as §1
# [18] = test system: Pigweed, Palmer (palmer amaranth, palmer pigweed, Amaranthus palmeri); test: Test A1 postemergence, Pigweed, Palmer; conditions: for Pigweed, Palmer plant response rating: 31 g ai/ha, postemergence, 0 to 100 scale (0 no effect, 100 complete control); for Plant response rating, Pigweed, Palmer: Postemergence, 125 g ai/ha, 0 to 100 scale
# Excerpt: as §1
# [19] = test system: ragweed (common ragweed, Ambrosia artemisiifolia); test: Test A1 postemergence, ragweed; conditions: for Ragweed plant response rating: 31 g ai/ha, postemergence, 0 to 100 scale (0 no effect, 100 complete control); for Plant response rating, Ragweed: Postemergence, 125 g ai/ha, 0 to 100 scale
# Excerpt: as §1
# [20] = test system: Ryegrass, Italian (Italian ryegrass, Lolium multiflorum); test: Test A1 postemergence, Ryegrass, Italian; conditions: for Ryegrass, Italian plant response rating: 31 g ai/ha, postemergence, 0 to 100 scale (0 no effect, 100 complete control); for Plant response rating, Ryegrass, Italian: Postemergence, 125 g ai/ha, 0 to 100 scale
# Excerpt: as §1
# soybean (Glycine max) [21] = test: Test A1 postemergence, soybean; conditions: for Soybean plant response rating: 31 g ai/ha, postemergence, 0 to 100 scale (0 no effect, 100 complete control); for Plant response rating, Soybean: Postemergence, 125 g ai/ha, 0 to 100 scale
# Excerpt: as §1
# [22] = test system: wheat (Triticum aestivum); test: Test A1 postemergence, wheat; conditions: for Wheat plant response rating: 31 g ai/ha, postemergence, 0 to 100 scale (0 no effect, 100 complete control); for Plant response rating, Wheat: Postemergence, 125 g ai/ha, 0 to 100 scale
# Excerpt: as §1
# [23] = test system: galium (catchweed bedstraw, Galium aparine); test: Test A1 postemergence, galium; conditions: for Galium plant response rating: 31 g ai/ha, postemergence, 0 to 100 scale (0 no effect, 100 complete control); for Plant response rating, Galium: Postemergence, 125 g ai/ha, 0 to 100 scale
# Excerpt: as §1
# [24] = test system: barnyardgrass (Echinochloa crus-galli); test: Test B1 flooded paddy test, barnyardgrass; conditions: 250 g ai/ha, Flood, applied to paddy water, 2-leaf stage, visually evaluated after 10 to 14 days
# Excerpt: (§2) A dash (-) response means no test result.
# [25] = test system: ducksalad (Heteranthera limosa); test: Test B1 flooded paddy test, ducksalad; conditions: 250 g ai/ha, Flood, applied to paddy water, 2-leaf stage, visually evaluated after 10 to 14 days
# Excerpt: as §2
# rice (Oryza sativa) = test: Test B1 flooded paddy test, rice; conditions: 250 g ai/ha, Flood, applied to paddy water, 2-leaf stage, visually evaluated after 10 to 14 days
# Excerpt: as §2
# [26] = test system: horseweed (Erigeron canadensis); test: Test A1 postemergence, horseweed
# Excerpt: as §1
# [27] = 31 g ai/ha, 0 to 100 scale (0 no effect, 100 complete control)
# [28] = 125 g ai/ha, 0 to 100 scale, 0 no effect, 100 complete control
# [29] = 31 g ai/ha, 0 to 100 scale (0 no effect, 100 complete control), 10 days
smiles,measurement,setting,value
Cc1c(NS(=O)(=O)C(F)(F)F)cc(C(=O)N2CCC(C)CC2)c(C)c1C [Compound 366],"Plant response rating, Blackgrass",[1]; [27],0
same,"Plant response rating, Blackgrass",[1]; [28],50
same,"Plant response rating, Corn",corn (Zea mays) [2]; [27],0
same,"Plant response rating, Corn",corn (Zea mays) [2]; [28],10
same,"Plant response rating, Foxtail, Giant",[3]; [27],100
same,"Plant response rating, Foxtail, Giant",[3]; [28],100
same,"Plant response rating, Goosegrass",[4]; [27],10
same,"Plant response rating, Goosegrass",[4]; [28],80
same,"Plant response rating, Kochia",kochia (Bassia scoparia) [5]; [27],0
same,"Plant response rating, Kochia",kochia (Bassia scoparia) [5]; [28],30
same,"Plant response rating, Oat, Wild",[6]; [27],10
same,"Plant response rating, Oat, Wild",[6]; [28],30
same,"Plant response rating, Pigweed, Palmer",[7]; [27],100
same,"Plant response rating, Pigweed, Palmer",[7]; [28],100
same,"Plant response rating, Ragweed",[8]; [27],30
same,"Plant response rating, Ragweed",[8]; [28],70
same,"Plant response rating, Ryegrass, Italian",[9]; [27],0
same,"Plant response rating, Ryegrass, Italian",[9]; [28],40
same,"Plant response rating, Soybean",soybean (Glycine max) [10]; [27],0
same,"Plant response rating, Soybean",soybean (Glycine max) [10]; [28],50
same,"Plant response rating, Wheat",[11]; [27],0
same,"Plant response rating, Wheat",[11]; [28],10
same,"Plant response rating, Blackgrass","[12]; 31 g ai/ha, 10 days",0
same,"Plant response rating, Blackgrass",[12]; 125 g ai/ha,0
same,"Plant response rating, Corn",corn (Zea mays) [13]; [29],0
same,"Plant response rating, Corn","corn (Zea mays) [13]; 125 g ai/ha, 0 to 100 scale",0
same,"Foxtail, Giant plant response rating",[14],30
same,"Plant response rating, Foxtail, Giant",[14],80
same,Goosegrass plant response rating,[15],0
same,"Plant response rating, Goosegrass",[15],80
same,Kochia plant response rating,kochia (Bassia scoparia) [16],0
same,"Plant response rating, Kochia",kochia (Bassia scoparia) [16],30
same,"Oat, Wild plant response rating",[17],0
same,"Plant response rating, Oat, Wild",[17],0
same,"Pigweed, Palmer plant response rating",[18],10
same,"Plant response rating, Pigweed, Palmer",[18],20
same,Ragweed plant response rating,[19],40
same,"Plant response rating, Ragweed",[19],80
same,"Ryegrass, Italian plant response rating",[20],0
same,"Plant response rating, Ryegrass, Italian",[20],20
same,Soybean plant response rating,soybean (Glycine max) [21],50
same,"Plant response rating, Soybean",soybean (Glycine max) [21],60
same,Wheat plant response rating,[22],0
same,"Plant response rating, Wheat",[22],20
same,Galium plant response rating,[23],50
same,"Plant response rating, Galium",[23],100
same,"Plant response rating, Barnyardgrass (0 to 100 scale, 0 is no effect, 100 is complete control)",[24],15
same,"Plant response rating, Ducksalad (0 to 100 scale, 0 is no effect, 100 is complete control)",[25],65
same,"Plant response rating, Rice (0 to 100 scale, 0 is no effect, 100 is complete control)",rice (Oryza sativa),10
CCOC(=O)N(c1cc(C2=NOC3CCCC23)c(CC)cc1C)S(=O)(=O)C(F)(F)F (stereo not drawn) [Compound 379],"Plant response rating, Corn",corn (Zea mays) [2]; [27],0
same,"Plant response rating, Corn",corn (Zea mays) [2]; [28],0
same,"Plant response rating, Foxtail, Giant",[3]; [27],0
same,"Plant response rating, Foxtail, Giant",[3]; [28],70
same,"Plant response rating, Goosegrass",[4]; [27],20
same,"Plant response rating, Goosegrass",[4]; [28],90
same,"Plant response rating, Kochia",kochia (Bassia scoparia) [5]; [27],0
same,"Plant response rating, Kochia",kochia (Bassia scoparia) [5]; [28],10
same,"Plant response rating, Oat, Wild",[6]; [27],0
same,"Plant response rating, Oat, Wild",[6]; [28],20
same,"Plant response rating, Ragweed",[8]; [27],0
same,"Plant response rating, Ragweed",[8]; [28],0
same,"Plant response rating, Ryegrass, Italian",[9]; [27],0
same,"Plant response rating, Ryegrass, Italian",[9]; [28],40
same,"Plant response rating, Soybean",soybean (Glycine max) [10]; [27],0
same,"Plant response rating, Soybean",soybean (Glycine max) [10]; [28],0
same,"Plant response rating, Wheat",[11]; [27],0
same,"Plant response rating, Wheat",[11]; [28],30
same,"Plant response rating, Blackgrass","[12]; 31 g ai/ha, 10 days",0
same,"Plant response rating, Blackgrass",[12]; 125 g ai/ha,30
same,"Plant response rating, Corn",corn (Zea mays) [13]; [29],0
same,"Plant response rating, Corn","corn (Zea mays) [13]; 125 g ai/ha, 0 to 100 scale",0
same,"Foxtail, Giant plant response rating",[14],0
same,"Plant response rating, Foxtail, Giant",[14],10
same,Goosegrass plant response rating,[15],10
same,"Plant response rating, Goosegrass",[15],60
same,Kochia plant response rating,kochia (Bassia scoparia) [16],0
same,"Plant response rating, Kochia",kochia (Bassia scoparia) [16],40
same,"Oat, Wild plant response rating",[17],0
same,"Plant response rating, Oat, Wild",[17],20
same,"Pigweed, Palmer plant response rating",[18],0
same,"Plant response rating, Pigweed, Palmer",[18],10
same,Ragweed plant response rating,[19],20
same,"Plant response rating, Ragweed",[19],40
same,"Ryegrass, Italian plant response rating",[20],0
same,"Plant response rating, Ryegrass, Italian",[20],0
same,Soybean plant response rating,soybean (Glycine max) [21],0
same,"Plant response rating, Soybean",soybean (Glycine max) [21],20
same,Wheat plant response rating,[22],20
same,"Plant response rating, Wheat",[22],70
same,Galium plant response rating,[23],0
same,"Plant response rating, Galium",[23],40
same,Horseweed plant response rating,"[26]; 31 g ai/ha, postemergence, 0 to 100 scale (0 no effect, 100 complete control)",0
same,"Plant response rating, Horseweed","[26]; Postemergence, 125 g ai/ha, 0 to 100 scale",50
same,"Plant response rating, Barnyardgrass (0 to 100 scale, 0 is no effect, 100 is complete control)",[24],95
same,"Plant response rating, Ducksalad (0 to 100 scale, 0 is no effect, 100 is complete control)",[25],60
same,"Plant response rating, Rice (0 to 100 scale, 0 is no effect, 100 is complete control)",rice (Oryza sativa),0
